Results: US20230143604A1, “QW DOSING OF GIP RECEPTOR AGONIST PEPTIDE COMPOUNDS AND USES THEREOF” (TAKEDA PHARMACEUTICAL COMPANY LIMITED, priority 2020, published 2023)
Like-named read-outs stand apart in the source and are kept apart here.

Experiments:
female beagle dogs = experiment: PYY-1119-induced vomiting in dogs; assay type: in vivo; settings: 3 nmol/kg s.c., 72 hours post-dose (lower line)
Protocol: The GIPR agonist peptide compounds of the present disclosure or vehicle (0.09% [w/v] Tween 80/10% DMSO/PBS) were administered subcutaneously (sc) at 3-10 nmol/kg to female beagle dogs (10 months old), followed by sc injections with Y2R agonist ((4-imidazolecarbonyl-Ser-D-Hyp-Iva-Pya(4)-Cha-Leu(Me)-Asn-Lys-Aib-Thr-Arg-Gln-Arg-Cha-NH2), […]), […]) at 1 hour or specified hours in the table postdose. Emetic episodes were counted for 2 hours after administration (by blinded analysis).

Dogs = assay type: in vivo
Protocol: Dogs are transferred to an observation cage (700 mm W×700 mm D×700 mm H [W×D×H], without food) on 1 day before each apomorphine challenge. The dogs are weighed by using an electronic balance then test peptide compounds and vehicle will be administrated via the subcutaneous route. Apomorphine is challenged at 8 hr after the administration and emetic events will be monitored for 1 h by video recording. The second apomorphine challenge will be 72 hr after the administration and emetic events will be recorded by the same protocol. Emesis symptoms are continuously recorded using a video camera and stored on a blue ray disc. Observation of symptoms include retching (a rhythmic contraction of the abdomen) and vomiting (vomiting behavior, including the elimination of vomitus or similar behavior). Besides, the combination of retching and vomiting is defined as emesis, and the number of episodes, latency (time elapsed from morphine administration until the onset of the first emesis symptom), duration (time elapsed between the onset of the first and final episodes of emesis), and frequency (number of animals showing emesis/number of experimental animals) of each of these symptoms is calculated. The latency in cases where emesis symptoms are not noted is taken as the maximum value (1 h for apomorphine challenge) at the end of observation. When the duration of the emesis symptoms is less than 1 min, the duration is recorded, for convenience, as 1 min.

physchem = experiment: physchem
Procedure, shortened: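 3 mg of peptide treated with 100 μL portions of 200 mM phosphate buffer pH 7.4, sonicating/vortexing up to 1 min, with further buffer added until fully dissolved. Solubility then quantified by HPLC.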

[1] = Pharmacokinetics in dog after IV and SC dosing; settings: in vivo, 3 nmol/kg
Procedure, shortened: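 Dogs were dosed IV or SC at 1 mL/kg with peptide at 3 nmol/mL in 10% DMSO/0.09% Polysorbate/PBS pH 7.4. K2-EDTA plasma was sampled to 336 h, and peptide was quantified by LCMS to derive half-life.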

human GLP-1R = biological target: T1, human GLP-1R (Homo sapiens, UniProt P43220); experiment: Human GLP1R agonist activity, intracellular cAMP accumulation; assay type: cell-based; settings: HEK-293T cells overexpressing human GLP-1R, 1 hr, read-out: Human GLP1R cAMP EC50, HEK293T
T1 construct: HEK-293T cells overexpressing full-length human GLP-1R; FLAG (N); host or cells: HEK-293T
T1 sequence (P43220 24-463): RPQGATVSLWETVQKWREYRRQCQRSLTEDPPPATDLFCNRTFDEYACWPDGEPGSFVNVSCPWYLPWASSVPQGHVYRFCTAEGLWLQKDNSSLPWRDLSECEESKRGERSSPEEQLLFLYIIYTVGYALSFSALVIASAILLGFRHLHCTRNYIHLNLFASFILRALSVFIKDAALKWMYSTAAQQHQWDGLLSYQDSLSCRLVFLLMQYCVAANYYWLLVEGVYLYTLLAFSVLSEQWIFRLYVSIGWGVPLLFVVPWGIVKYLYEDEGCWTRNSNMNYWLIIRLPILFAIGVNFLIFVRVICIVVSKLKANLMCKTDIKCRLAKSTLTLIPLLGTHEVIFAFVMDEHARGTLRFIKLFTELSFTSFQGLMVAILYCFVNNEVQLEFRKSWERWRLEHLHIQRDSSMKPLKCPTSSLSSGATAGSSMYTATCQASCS
Procedure, shortened: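 Frozen assay-ready cells washed and resuspended at 4×10^5 cells/mL in Krebs Ringer buffer, then incubated with compound 1 hr at room temperature in the dark. cAMP read by HTRF (anti-cAMP antibody, d2-cAMP tracer). Normalised to 1 nm GLP-1 (100%) and DMSO (0%).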

C57BL/6J mice = experiment: Oral glucose tolerance test (OGTT); assay type: in vivo; settings: 3 nmol/kg s.c., 24 hours before glucose loading
Procedure, shortened: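 Peptide or vehicle given s.c. at 0.1, 0.3, 3 or 10 nmol/kg (peptide-dependent), 24 h before oral 50% dextrose at 5 ml/kg unless stated otherwise. Blood glucose read at 0, 15, 30 and 60 min. % inhibition = (1−(AUC cpd−AUC naïve)/(AUC veh−AUC naïve))×100.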

In the case of `CC[C@H](C)[C@H](NC(=O)[C@H](CO)NC(=O)[C@H](Cc1ccc(O)cc1)NC(=O)[C@H](CC(=O)O)NC(=O)[C@H](CO)NC(=O)[C@@H](NC(=O)[C@H](Cc1ccccc1)NC(=O)[C@@H](NC(=O)CNC(=O)[C@H](CCC(=O)O)NC(=O)C(C)(C)NC(=O)[C@H](Cc1ccc(O)cc1)NC)[C@@H](C)O)[C@@H](C)CC)C(=O)N[C@@H](C)C(=O)N[C@@H](CCCCNC(=O)CNC(=O)CNC(=O)CNC(=O)CNC(=O)CNC(=O)CCCCCCCCCCCCCCCCC(=O)O)C(=O)N[C@@H](CC(=O)O)C(=O)N[C@@H](CCCNC(=N)N)C(=O)NC(C)(C)C(=O)N[C@@H](C)C(=O)N[C@@H](CCC(N)=O)C(=O)NC(C)(C)C(=O)N[C@@H](CC(N)=O)C(=O)N[C@@H](Cc1ccccc1)C(=O)N[C@H](C(=O)N[C@@H](CC(N)=O)C(=O)N[C@@H](Cc1c[nH]c2ccccc12)C(=O)N[C@@H](CC(C)C)C(=O)N[C@@H](CC(C)C)C(=O)N[C@@H](C)C(=O)N[C@@H](CCC(N)=O)C(=O)N[C@@H](CO)C(=O)N1CCC[C@H]1C(=O)N[C@@H](CO)C(=O)N[C@@H](CO)C(=O)NCC(=O)N[C@@H](C)C(=O)N1CCC[C@H]1C(=O)N1CCC[C@H]1C(=O)N1CCC[C@H]1C(=O)N[C@@H](CO)C(=O)O)C(C)C` [Compound 45, Me-Y-Aib-E-G-T-F-I-S-D-Y-S-I-A-Km-D-R-Aib-A-Q-Aib-N-F-V-N-W-L-L-A-Q-S-P-S-S-G-A-P-P-P-S-OH], the “Inhibition (%) of PYY-1119-induced emetic event” value (“Inhibition (%)” below) (female beagle dogs) is reported as 90% (3 nmol/kg), the “% inhibition of emetic events at doses (nmol/kg) shown in dog apomorphine model” value (“% inhibition of emetic events at doses” below) (Dogs; after 8 hrs (upper), 30 nmol/kg s.c.) is reported as 70% (30 nmol/kg) and the “% inhibition of emetic events at doses” value (Dogs; after 72 hours (lower), 30 nmol/kg s.c.) is reported as 72% (30 nmol/kg). For the same compound, the solubility (physchem; pH 7.4) was ≥ 15 mg/mL, the solubility (physchem; pH 7.4, aqueous buffer) was ≥ 60 mg/mL and the half-life ([1]; iv) was 62 h. For the same compound, the MRT last ([1]; sc) was 125 h.
With `CC[C@H](C)[C@H](NC(=O)[C@H](Cc1ccccc1)NC(=O)[C@@H](NC(=O)CNC(=O)[C@H](CCC(=O)O)NC(=O)C(C)(C)NC(=O)[C@H](Cc1ccc(O)cc1)NC)[C@@H](C)O)C(=O)N[C@@H](CO)C(=O)N[C@@H](CC(=O)O)C(=O)N[C@@H](Cc1ccc(O)cc1)C(=O)N[C@@H](CO)C(=O)N[C@H](C(=O)NC(C)(C)C(=O)N[C@@H](CCCCNC(=O)CNC(=O)CNC(=O)CNC(=O)CNC(=O)CNC(=O)CCCCCCCCCCCCCCCCC(=O)O)C(=O)N[C@@H](CC(=O)O)C(=O)N[C@@H](CCCNC(=N)N)C(=O)NC(C)(C)C(=O)N[C@@H](C)C(=O)N[C@@H](CCC(N)=O)C(=O)NC(C)(C)C(=O)N[C@@H](CC(=O)O)C(=O)N[C@@H](Cc1ccccc1)C(=O)N[C@H](C(=O)N[C@@H](CCC(=O)O)C(=O)N[C@@H](Cc1c[nH]c2ccccc12)C(=O)N[C@@H](CC(C)C)C(=O)N[C@@H](CC(C)C)C(=O)N[C@@H](C)C(=O)N[C@@H](CCC(N)=O)C(=O)N[C@@H](CCCNC(=N)N)C(=O)NCC(=O)O)C(C)C)[C@@H](C)CC` [Compound 108] the EC50 (human GLP-1R) was 41.7 nM, the “Oral Glucose Tolerance Test Percent decrease in blood glucose AUC (%) over 60 mins” value (C57BL/6J mice) was 65% (3 nmol/kg) and the “Inhibition (%)” value (female beagle dogs) was 96% (3 nmol/kg). For the same compound, the “% inhibition of emetic events at doses” value (Dogs; after 8 hrs (upper), 10 nmol/kg s.c.) was 50% (10 nmol/kg), the “% inhibition of emetic events at doses” value (Dogs; after 72 hours (lower), 10 nmol/kg s.c.) was 54% (10 nmol/kg) and the solubility (physchem; pH 7.4) was ≥ 15 mg/mL. For the same compound, the solubility (physchem; pH 7.4, aqueous buffer) was ≥ 60 mg/mL.
With `CC[C@H](C)[C@H](NC(=O)[C@H](CCCNC(=N)N)NC(=O)[C@H](CC(=O)O)NC(=O)[C@H](CCCCNC(=O)CNC(=O)CNC(=O)CNC(=O)CNC(=O)CNC(=O)CCCCCCCCCCCCCCCCC(=O)O)NC(=O)[C@H](C)NC(=O)[C@@H](NC(=O)[C@H](CO)NC(=O)[C@H](Cc1ccc(O)cc1)NC(=O)[C@H](CC(=O)O)NC(=O)[C@H](CO)NC(=O)[C@@H](NC(=O)[C@H](Cc1ccccc1)NC(=O)[C@@H](NC(=O)CNC(=O)[C@H](CCC(=O)O)NC(=O)C(C)(C)NC(=O)[C@H](Cc1ccc(O)cc1)NC)[C@@H](C)O)[C@@H](C)CC)[C@@H](C)CC)C(=O)N[C@@H](C)C(=O)N[C@@H](CCC(N)=O)C(=O)N[C@@H](CCCNC(=N)N)C(=O)N[C@@H](CC(N)=O)C(=O)N[C@@H](Cc1ccccc1)C(=O)N[C@H](C(=O)N[C@@H](CCC(=O)O)C(=O)N[C@@H](Cc1c[nH]c2ccccc12)C(=O)N[C@@H](CC(C)C)C(=O)N[C@@H](CC(C)C)C(=O)N[C@@H](C)C(=O)N[C@@H](CCC(N)=O)C(=O)N[C@@H](CO)C(=O)N1CCC[C@H]1C(=O)N[C@@H](CO)C(=O)N[C@@H](CO)C(=O)NCC(=O)N[C@@H](C)C(=O)N1CCC[C@H]1C(=O)N1CCC[C@H]1C(=O)N1CCC[C@H]1C(=O)N[C@@H](CO)C(=O)O)C(C)C` [Compound 179] the “Oral Glucose Tolerance Test Percent decrease in blood glucose AUC (%) over 60 mins” value (C57BL/6J mice) was 58% (3 nmol/kg), the “Inhibition (%)” value (female beagle dogs) was 45% (3 nmol/kg) and the solubility (physchem; pH 7.4, aqueous buffer, pH 7.4 Phosphate Buffer - Solubility, 200 mM Phosphate buffer pH 7.4) was ≥ 30 mg/mL. The solubility (physchem; pH 7.4, solubility in phosphate buffer at pH 7.4, 200 mM phosphate buffer pH 7.4) was ≥ 15 mg/mL.
